The source of these data is US20100160335A1, “PYRIDAZINONE DERIVATIVE AND PDE INHIBITOR CONTAINING THE SAME AS ACTIVE INGREDIENT” (KYORIN PHARMACEUTICAL CO., LTD., priority 2007, published 2010).

Where two headings read alike, the source gives them in different places. Some results are limits rather than exact numbers.

The subject of assay [1] is LPS acute inflammation model in rats. Briefly: LPS acute inflammation model in rats (total leukocytes in BALF). The format is in vivo. Particulars: BALF 3 hours after LPS; for inhibition in vivo at 1 mg/kg: Rattus norvegicus, Leukocyte, po, 3 h, read-out: Inhibition rate (total number of leukocytes in BALF); for Inhibition rate (total number of leukocytes in BALF): rat. The method, then: 1 mg/kg of the compound was orally administered to rat one hour before inhalation of a lipopolysaccharide from E. coli serotype 055:B5 (LPS), and the rat was made to inhale 50 mL of the LPS solution nebulized using a nebulizer for 30 minutes. Then, 3 hours after the LPS inhalation, the rat was euthanized with 20% urethane (5 ml/rat, i.p.). 5 ml of physiological saline for bronchoalveolar lavage was injected into the bronchial tubes and alveoli through the airway, and the bronchial tubes and alveoli were washed three times using a 5 mL syringe. This operation was repeated twice, and the solution was collected as bronchoalveolar lavage fluid (BALF). The collected BALF was centrifuged at 1200 rpm and 4° C. for 10 minutes (Hirtachi; himac CR 5 DL). The pellet was re-suspended in 10 mL of a 0.1% bovine serum albumin-physiological saline, and an equivalent amount of Turk's solution was added thereto to stain leukocytes. The total number of leukocytes was counted under a microscope to calculate the inhibition rate. Further, the indications were as follows: inhibition rate≧90% (++) and 90%>inhibition rate≧50% (+). [ ] means the results of the drug administration after fasting overnight.

Assay [2] deals with T1, PDE3A catalytic domain (PDE3Acat) (Homo sapiens, UniProt Q14432).
T1 construct: made in house; host or cells: Sf9 insect cells (baculovirus, Bac-to-Bac / Gateway)
Briefly: Phosphodiesterase inhibitory activity, PDE3 ([3H]cAMP, recombinant enzyme). The class given is biochemical. Particulars: 30° C., 20 minutes, read-out: IC50(μmol/L) PDE3.

Assay [3] has as its target T2, PDE4Bcat (Homo sapiens, UniProt Q07343).
T2 construct: made in house; host or cells: Sf9 insect cells (baculovirus, Bac-to-Bac / Gateway)
Briefly: Phosphodiesterase inhibitory activity, PDE4 ([3H]cAMP, recombinant enzyme). The note with it: 30° C., 20 minutes, read-out: IC50(μmol/L) PDE4. The format is biochemical.

Assay [4] deals with histamine-induced bronchoconstriction in guinea pigs. Briefly: Histamine-induced bronchoconstriction reaction in guinea pigs. The format is in vivo. Particulars: Cavia porcellus, iv, 0.5 min, guinea pig, measured 30 seconds after administration, read-out: Inhibition rate (histamine-induced bronchoconstriction); for inhibition in vivo at 0.3 mg/kg: compound 0.3 mg/kg, i.v.; for inhibition in vivo at 0.1 mg/kg: compound 0.1 mg/kg, i.v. (values in [ ]). The method, then: Guinea pigs were anesthetized with pentobarbital (30 mg/kg, i.p.). A cannula for intravenous administration was inserted into the left external jugular vein, a cannula for collecting blood and measuring blood pressure was inserted into the right internal carotid artery, and a tracheal cannula was inserted into the trachea. The guinea pigs were maintained on artificial respiration under the conditions of 60 times/min and 10 mL/kg/stroke. The airflow from the side branch of the tracheal cannula was measured by a bronchospasm transducer (Ugo-Basile) and recorded on a computer via Power Lab (ADInstruments Japan). The guinea pigs were immobilized with gallamine (10 mg/kg, i.v.), and histamine (12.5 μg/kg, i.v.) was administered at 10-minute intervals. After the histamine-induced bronchoconstriction became stable, the compound (0.3 mg/kg, i.v.) was administered. The histamine-induced bronchoconstriction reaction was measured 30 seconds after the compound administration to examine the bronchoconstriction inhibitory activity of the compound. The bronchoconstriction was recorded as the airflow value, and the results were represented by the ratio of the maximum value of the histamine- induced airflow 30 seconds after the administration to the maximum value of the airflow before the administration. Also, the test compounds dissolved in DMSO were used. Further, the indications were as follows: inhibition rate≧90% (+++), 90%>inhibition rate≧80% (++), and 80%>inhibition rate≧70% (+). [ ] means the results in the case of 0.1 mg/kg, i.v.

[5] abbreviates: 1 mg/kg orally one hour before LPS inhalation.

T2 sequence (Q07343 330-659 limits assumed): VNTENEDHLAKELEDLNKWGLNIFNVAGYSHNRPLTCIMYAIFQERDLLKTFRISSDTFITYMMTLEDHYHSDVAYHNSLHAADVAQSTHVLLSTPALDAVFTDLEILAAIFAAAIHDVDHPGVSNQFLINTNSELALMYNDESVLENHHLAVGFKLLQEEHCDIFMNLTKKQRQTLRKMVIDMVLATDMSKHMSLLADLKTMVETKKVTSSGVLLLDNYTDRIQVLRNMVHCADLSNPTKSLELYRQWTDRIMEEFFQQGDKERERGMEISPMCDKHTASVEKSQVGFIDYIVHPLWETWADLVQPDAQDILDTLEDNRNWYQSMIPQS
T1 sequence (Q14432 674-1093 limits assumed): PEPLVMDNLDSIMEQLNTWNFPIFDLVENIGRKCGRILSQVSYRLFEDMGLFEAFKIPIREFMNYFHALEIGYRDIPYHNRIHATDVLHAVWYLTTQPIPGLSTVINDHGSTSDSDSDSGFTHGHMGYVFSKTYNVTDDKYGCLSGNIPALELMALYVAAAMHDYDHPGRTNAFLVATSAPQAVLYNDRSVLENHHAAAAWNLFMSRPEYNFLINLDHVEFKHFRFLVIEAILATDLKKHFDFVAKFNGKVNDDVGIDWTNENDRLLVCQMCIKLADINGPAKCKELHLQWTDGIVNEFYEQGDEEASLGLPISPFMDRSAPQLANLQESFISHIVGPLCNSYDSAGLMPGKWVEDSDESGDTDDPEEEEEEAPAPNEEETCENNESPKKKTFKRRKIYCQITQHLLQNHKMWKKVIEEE

As to `CCc1ccc2c(C3=NN(CCCCOc4ccc(C5=NNC(=O)CC5C)cc4)C(=O)CC3C)ccc(OC)c2n1` (single isomer, unassigned) [Example 339, 6-(2-Ethyl-8-methoxyquinolin-5-yl)-5-methyl-2-[4-[4-(4-methyl-6-oxo-1,4,5,6-tetrahydropyridazin-3-yl)phenoxy]butyl]-4,5-dihydro-2H-pyridazin-3-one], the inhibition in vivo at 1 mg/kg in assay [1] (setting [5]) lay within 50 to 90%. Also, the IC50 in assay [2] was 1 to 10 µmol/L; in assay [3], less than 0.1 µmol/L.
For `CCc1ccc2c(C3=NN(CCCCOc4ccc(C5=NNC(=O)CC5C)cc4)C(=O)CC3C)ccc(OC)c2n1` (single isomer, unassigned) [Example 340, 6-(2-Ethyl-8-methoxyquinolin-5-yl)-5-methyl-2-[4-[4-(4-methyl-6-oxo-1,4,5,6-tetrahydropyridazin-3-yl)phenoxy]butyl]-4,5-dihydro-2H-pyridazin-3-one], in assay [4], the inhibition in vivo at 0.3 mg/kg is not below 90%. Further, the “Inhibition rate (total number of leukocytes in BALF)” value in assay [1] (setting [5]) is “+ (90%>inhibition rate≧50% (+))”. Besides, the IC50 in assay [2] and in assay [3] was less than 0.1 µmol/L throughout.
For the compound `CCc1ccc2c(-c3ccc(=O)n(CCCCOc4ccc(C5=NNC(=O)CC5C)c(F)c4F)n3)ccc(OC)c2n1` (single isomer, unassigned; (+)) [Example 322, (+)-6-(2-ethyl-8-methoxyquinolin-5-yl)-2-[4-[2,3-difluoro-4-(4-methyl-6-oxo-1,4,5,6-tetrahydropyridazin-3-yl)phenoxy]butyl]-2H-pyridazin-3-one], the “Inhibition rate (total number of leukocytes in BALF)” value in assay [1] (1 mg/kg orally after fasting overnight (values in [ ]), one hour before LPS inhalation, 1 mg/kg) was “[+] (90%>inhibition rate≧50% (+))”. For the same compound, the IC50 in assay [2] and in assay [3] was less than 0.1 µmol/L in each case.
`CCc1ccc2c(-c3ccc(=O)n(CCCCOc4ccc(C5=NNC(=O)CC5)c(F)c4F)n3)ccc(OC)c2n1` [Example 283, 6-(2-Ethyl-8-methoxyquinolin-5-yl)-2-[4-[2,3-difluoro-4-(6-oxo-1,4,5,6-tetrahydropyridazin-3-yl)phenoxy]butyl]-2H-pyridazin-3-one]: the inhibition in vivo at 1 mg/kg in assay [1] (1 mg/kg orally after fasting overnight (values in [ ]), one hour before LPS inhalation) is not below 90%. Also, the IC50 was less than 0.1 µmol/L in assay [2] and 0.1 to 1 µmol/L in assay [3].
With `CCc1ccc2c(C3=NN(CCCCOc4ccc(C5=NNC(=O)CC5)cc4)C(=O)CC3C)ccc(OC)c2n1` (stereo not shown) [Example 296, 6-(2-Ethyl-8-methoxyquinolin-5-yl)-5-methyl-2-[4-[4-(6-oxo-1,4,5,6-tetrahydropyridazin-3-yl)phenoxy]butyl]-4,5-dihydro-2H-pyridazin-3-one], the inhibition in vivo at 0.1 mg/kg in assay [4] was in the range of 80 to 90%. Further, the IC50 is 1 to 10 µmol/L in assay [2] and less than 0.1 µmol/L in assay [3].
With `CCc1ccc2c(C3=NN(CCCCOc4ccc(C5=NNC(=O)CC5)cc4OC)C(=O)CC3C)ccc(OC)c2n1` (stereo not shown) [Example 297, 6-(2-Ethyl-8-methoxyquinolin-5-yl)-5-methyl-2-[4-[2-methoxy-4-(6-oxo-1,4,5,6-tetrahydropyridazin-3-yl)phenoxy]butyl]-4,5-dihydro-2H-pyridazin-3-one], the inhibition in vivo at 0.3 mg/kg in assay [4] was not below 90%. The figures for the IC50 in assay [2] and in assay [3] were 1 to 10 µmol/L and 0.1 to 1 µmol/L, respectively.
Take `CCc1ccc2c(C3=NN(CCCCOc4ccc(C5=NNC(=O)CC5)cc4F)C(=O)CC3C)ccc(OC)c2n1` (stereo not shown) [Example 298, 6-(2-Ethyl-8-methoxyquinolin-5-yl)-5-methyl-2-[4-[2-fluoro-4-(6-oxo-1,4,5,6-tetrahydropyridazin-3-yl)phenoxy]butyl]-4,5-dihydro-2H-pyridazin-3-one]: the inhibition in vivo at 0.1 mg/kg in assay [4] was not below 90%. Further, the IC50 in assay [2] and in assay [3] was less than 0.1 µmol/L each time.
With `CCc1ccc2c(C3=NN(CCCCOc4ccc(C5=NNC(=O)C5(C)C)cc4)C(=O)CC3C)ccc(OC)c2n1` (stereo not shown) [Example 300, 6-(2-Ethyl-8-methoxyquinolin-5-yl)-5-methyl-2-[4-[4-(4,4-dimethyl-5-oxo-4,5-dihydro-1H-pyrazol-3-yl)phenoxy]butyl]-4,5-dihydro-2H-pyridazin-3-one], the inhibition in vivo at 0.3 mg/kg in assay [4] lay in the range of 70 to 80%. Also, the IC50 in assay [2] was 1 to 10 µmol/L; in assay [3], less than 0.1 µmol/L.
For the compound `CCc1ccc2c(C3=NN(CCCCOc4ccc(C5=NNC(=O)C5(C)C)cc4OC)C(=O)CC3C)ccc(OC)c2n1` (stereo not shown) [Example 301, 6-(2-Ethyl-8-methoxyquinolin-5-yl)-5-methyl-2-[4-[2-methoxy-4-(4,4-dimethyl-5-oxo-4,5-dihydro-1H-pyrazol-3-yl)phenoxy]butyl]-4,5-dihydro-2H-pyridazin-3-one], the inhibition in vivo at 0.3 mg/kg in assay [4] is 80 to 90%. Further, the IC50 in assay [2] was not below 10 µmol/L; in assay [3] it was 0.1 to 1 µmol/L.
For `CCc1ccc2c(C3=NN(CCCCOc4ccc(C5=NNC(=O)C5(C)C)c(F)c4F)C(=O)CC3C)ccc(OC)c2n1` (stereo not shown) [Example 303, 6-(2-Ethyl-8-methoxyquinolin-5-yl)-5-methyl-2-[4-[2,3-difluoro-4-(4,4-dimethyl-5-oxo-4,5-dihydro-1H-pyrazol-3-yl)phenoxy]butyl]-4,5-dihydro-2H-pyridazin-3-one], the inhibition in vivo at 0.3 mg/kg in assay [4] lay within 80 to 90%. Further, the IC50 in assay [2] was 0.1 to 1 µmol/L; in assay [3] it was less than 0.1 µmol/L.
Take `COc1ccc(-c2ccc(=O)n(CCCCOc3ccc(C4=NNC(=O)CC4C)c(F)c3F)n2)c2nc(C(F)(F)F)nn12` (stereo not shown) [Example 304, 2-[4-[2,3-Difluoro-4-(4-methyl-6-oxo-1,4,5,6-tetrahydropyridazin-3-yl)phenoxy]butyl]-6-(5-methoxy-2-trifluoromethyl-[1,2,4]triazolo [1,5-a]pyridin-8-yl)-2H-pyridazin-3-one]: the inhibition in vivo at 0.3 mg/kg in assay [4] was not below 90%. Further, the IC50 in assay [2] is less than 0.1 µmol/L; in assay [3] it was 1 to 10 µmol/L.
Turning to `COc1ccc(-c2ccc(=O)n(CCCCOc3ccc(C4=NNC(=O)CC4)c(F)c3F)n2)c2nc(C(F)(F)F)nn12` [Example 305, 2-[4-[2,3-Difluoro-4-(6-oxo-1,4,5,6-tetrahydropyridazin-3-yl)phenoxy]butyl]-6-(5-methoxy-2-trifluoromethyl-[1,2,4]triazolo[1,5-a]pyridin-8-yl)-2H-pyridazin-3-one], the inhibition in vivo at 0.3 mg/kg in assay [4] is not below 90%. Moreover, the IC50 in assay [2] was in the range of 0.1 to 1 µmol/L; in assay [3], 1 to 10 µmol/L.
On to `CCc1ccc2c(C3=NN(CCOc4ccc(C5=NNC(=O)CC5C)cc4)C(=O)CC3C)ccc(OC)c2n1` (stereo not shown) [Example 315, 6-(2-Ethyl-8-methoxyquinolin-5-yl)-5-methyl-2-[2-[4-(4-methyl-6-oxo-1,4,5,6-tetrahydropyridazin-3-yl)phenoxy]ethyl]-4,5-dihydro-2H-pyridazin-3-one], for which the inhibition in vivo at 0.3 mg/kg in assay [4] lay within 70 to 80%. Besides, the IC50 in assay [2] was 1 to 10 µmol/L; in assay [3], less than 0.1 µmol/L.
Regarding `COc1ccc(C2=NN(CCCCOc3ccc(C4=NNC(=O)CC4C)cc3)C(=O)CC2C)c2cccnc12` (stereo not shown) [Example 316, 6-(8-Methoxyquinolin-5-yl)-5-methyl-2-[4-[4-(4-methyl-6-oxo-1,4,5,6-tetrahydropyridazin-3-yl)phenoxy]butyl]-4,5-dihydro-2H-pyridazin-3-one], the inhibition in vivo at 0.1 mg/kg in assay [4] is not below 90%. Further, the IC50 in assay [2] is less than 0.1 µmol/L; in assay [3], 0.1 to 1 µmol/L.
With `COc1ccc(-c2ccc(=O)n(CCCCOc3ccc(C4=NNC(=O)CC4C)cc3)n2)c2cccnc12` (stereo not shown) [Example 318, 6-(8-Methoxyquinolin-5-yl)-2-[4-[4-(4-methyl-6-oxo-1,4,5,6-tetrahydropyridazin-3-yl)phenoxy]butyl]-2H-pyridazin-3-one], in assay [4], the inhibition in vivo at 0.3 mg/kg is not below 90%. In addition, the IC50 was less than 0.1 µmol/L in assay [2] and 0.1 to 1 µmol/L in assay [3].
